Assay results from patent publication US9101638B2, “Boronic acid derivatives and therapeutic uses thereof” (Rempex Pharmaceuticals, Inc., priority 2013, dated 2015).
Counter-ions that a name gives are not always drawn.

Key:
Type in all cases: biochemical, mammalian
Thrombin = target: T1, Thrombin (Homo sapiens, UniProt P00734); experiment: Serine protease inhibition: thrombin
T1 construct: Thrombin; MPBio; 19491880; purchased MPBio 19491880
Description: (§1) The effect of selected BLIs on the enzymatic activity of some common mammalian serine proteases was evaluated.
(§2) 50 μl of the diluted enzyme was mixed with 50 μl of inhibitor at various concentrations and 50 μl of corresponding buffer (Table 7). Reaction mixtures were incubated for 10 min at 37° C. Subsequently, 50 μl of corresponding substrate (Table 7) was added and absorbance or fluorescence was monitored for 30 min on SpectraMax M2 plate reader (Molecular Devices). 4-(2-Aminoethyl)benzenesulfonyl fluoride hydrochloride (AEBSF) and leupeptin were used as positive controls. Rates of reaction were calculated and presented relative to “no treatment” control.

Urokinase = target: T2, Urokinase (Homo sapiens, UniProt P00749); experiment: Serine protease inhibition: urokinase
T2 construct: purchased Calbiochem 672112
Description: as §1, §2

Chymase = target: T3, Chymase (Homo sapiens, UniProt P23946); experiment: Serine protease inhibition: chymase
T3 construct: purchased Enzo Lifescience BML-SE281
T3 sequence (P23946 22-247): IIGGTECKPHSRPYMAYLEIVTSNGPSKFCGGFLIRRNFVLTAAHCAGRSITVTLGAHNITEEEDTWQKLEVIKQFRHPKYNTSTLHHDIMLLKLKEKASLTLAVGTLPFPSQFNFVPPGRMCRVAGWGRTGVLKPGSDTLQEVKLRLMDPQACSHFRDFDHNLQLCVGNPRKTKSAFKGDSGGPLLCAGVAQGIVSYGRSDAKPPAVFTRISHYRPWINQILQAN
Description: as §1, §2

Neutrophil elastase = target: T4, Neutrophil elastase (Homo sapiens, UniProt P08246); experiment: Serine protease inhibition: neutrophil elastase
T4 construct: purchased Calbiochem 324681
T4 sequence (P08246 30-267): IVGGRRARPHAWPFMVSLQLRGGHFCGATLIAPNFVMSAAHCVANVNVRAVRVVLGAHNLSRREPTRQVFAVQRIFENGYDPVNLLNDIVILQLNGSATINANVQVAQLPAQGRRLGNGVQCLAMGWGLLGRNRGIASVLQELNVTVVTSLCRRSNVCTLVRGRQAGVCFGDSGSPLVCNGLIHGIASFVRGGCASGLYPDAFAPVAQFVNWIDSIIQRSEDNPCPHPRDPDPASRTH
Description: as §1, §2

Work on `NCCc1ccc(S(=O)(=O)F)cc1` [AEBSF, 4-(2-Aminoethyl)benzenesulfonyl fluoride hydrochloride, reference compound] yielded an IC50 (Thrombin) of 100 µM, an IC50 (Urokinase) of 8.2 µM and an IC50 (Chymase) of 375 µM. For the same molecule, the IC50 (Neutrophil elastase) was > 500 µM.
